In patent US4410516A, “1-N(αHydroxy-ω-aminoalkanoyl) derivatives of 5,3',4'-trideoxy- or 5,3', 4'-trideoxy-6'-N- methyl- or 5, 3', 4',6"-tetradeoxykannamyci B and production thereof” (Zaidan Hojin Biseibutsu Kagaku Kenkyu Kai, priority 1981, dated 1983):
Converted amounts (≈) assume the structure as drawn.

How the values were obtained:
Type in all cases: cell-based
[1] = tested on: Staphylococcus epidermidis 109; assay: Minimum inhibitory concentration, serial dilution on nutrient agar; details: Staphylococcus epidermidis, 109; nutrient agar, 37° C., 18 hours incubation; read-out: MIC
[2] = tested on: Staphylococcus aureus AP01; assay: as above; details: 37° C., 18 hours incubation
[3] = tested on: Pseudomonas aeruginosa TI-13; assay: as above; details: TI13, 18 h
[4] = tested on: Escherichia coli K-12 LA 290 R56; assay: as above; details: K12LA290R56, 18 h
[5] = tested on: Pseudomonas aeruginosa H11; assay: as above; details: H11, nutrient agar, 37° C., 18 hours incubation, read-out: MIC
Escherichia coli JR255 = assay: as above; details: JR255, nutrient agar, 37° C., 18 hours incubation, read-out: MIC
Serratia marcescens = assay: as above; details: 37° C., 18 hours incubation
Salmonella typhi T-63 = assay: as above; details: Salmonella enterica, 18 h
Proteus rettgeri GN466 = assay: as above; details: Providencia rettgeri, GN466, 18 h
[6] = tested on: Escherichia coli JR66/W677; assay: as above; details: JR66/W677, 18 h
Providencia Pv 16 = assay: as above; details: PV16, 37° C., 18 hours incubation
[7] = tested on: Pseudomonas aeruginosa GN315; assay: as above; details: GN315, nutrient agar, 37° C., 18 hours incubation, read-out: MIC
[8] = tested on: Escherichia coli K-12 ML 1410; assay: as above; details: K12ML1410, 18 h
Escherichia coli NIHJ = assay: as above; details: nutrient agar, 37° C., 18 hours incubation, read-out: MIC
[9] = tested on: Bacillus subtilis PCI 219; assay: as above; details: PCI219, 37° C., 18 hours incubation
[10] = tested on: Klebsiella pneumoniae PCI 602; assay: as above; details: PCI602, nutrient agar, 37° C., 18 hours incubation, read-out: MIC
[11] = tested on: Pseudomonas aeruginosa No. 12; assay: as above; details: NO.12, nutrient agar, 37° C., 18 hours incubation, read-out: MIC
Sarcina lutea PCI 1001 = assay: as above; details: Micrococcus luteus, PCI1001; nutrient agar, 37° C., 18 hours incubation; read-out: MIC
[12] = tested on: Pseudomonas aeruginosa 21-75; assay: as above; details: 2175, 37° C., 18 hours incubation
Escherichia coli K-12 = assay: as above; details: K12, nutrient agar, 37° C., 18 hours incubation, read-out: MIC
[13] = tested on: Mycobacterium smegmatis ATCC 607; assay: as above; details: Mycolicibacterium smegmatis, ATCC607; nutrient agar, 37° C., 18 hours incubation; read-out: MIC
[14] = tested on: Pseudomonas aeruginosa B-13; assay: as above; details: B13, 37° C., 18 hours incubation
Bacillus anthracis = assay: microbe, parasite or virus in culture; details: 18 h
[15] = tested on: Pseudomonas aeruginosa ROS134/PU21; assay: Minimum inhibitory concentration, serial dilution on nutrient agar; details: ROS134/PU21, 18 h
[16] = tested on: Bacillus subtilis NRRL B-558; assay: as above; details: NRRLB558, 37° C., 18 hours incubation
[17] = tested on: Pseudomonas aeruginosa 99; assay: as above; details: Pseudomonas aeruginosa, 99; nutrient agar, 37° C., 18 hours incubation; read-out: MIC
Escherichia coli K-12 R5 = assay: as above; details: K12R5, 18 h
[18] = tested on: Escherichia coli K-12 R 388; assay: as above; details: K12R388, 18 h
[19] = tested on: Escherichia coli K-12 ML 1629; assay: as above; details: K12ML1629, nutrient agar, 37° C., 18 hours incubation, read-out: MIC
Serratia 4 = assay: as above; details: 37° C., 18 hours incubation
[20] = tested on: Bacillus cereus ATCC 10702; assay: as above; details: ATCC10702, nutrient agar, 37° C., 18 hours incubation, read-out: MIC
[21] = tested on: Pseudomonas maltophilia GN907; assay: as above; details: Stenotrophomonas maltophilia, 37° C., 18 hours incubation
[22] = tested on: Klebsiella pneumoniae 22 #3038; assay: as above; details: 18 h
Proteus vulgaris OX19 = assay: as above; details: 37° C., 18 hours incubation
[23] = tested on: Pseudomonas aeruginosa K-Ps102; assay: as above; details: KPS102, 18 h
[24] = tested on: Pseudomonas aeruginosa H9; assay: as above; details: H9, 18 h
[25] = tested on: Staphylococcus aureus Smith; assay: as above; details: 37° C., 18 hours incubation
[26] = tested on: Micrococcus flavus FDA 16; assay: as above; details: FDA16, nutrient agar, 37° C., 18 hours incubation, read-out: MIC
[27] = tested on: Pseudomonas aeruginosa A3; assay: as above; details: 37° C., 18 hours incubation
[28] = tested on: Escherichia coli K-12 LA 290 R55; assay: as above; details: K12LA290R55, 18 h
Proteus rettgeri GN311 = assay: as above; details: Providencia rettgeri, 37° C., 18 hours incubation

In the case of `C[C@H]1O[C@H](O[C@@H]2C[C@H](O[C@H]3O[C@H](CN)CC[C@H]3N)[C@@H](N)C[C@H]2NC(=O)[C@@H](O)CCN)[C@H](O)[C@@H](N)[C@@H]1O` [AHB-tetradeoxyKMB, 1-N-[(S)-4-amino-2-hydroxybutyryl]-5,3',4',6"-tetradeoxykanamycin B], the MIC [1] is reported as 0.78 µg/mL (≈ 1.5 µM), the MIC [2] is reported as 0.78 µg/mL (≈ 1.5 µM) and the MIC [3] is reported as 3.13 µg/mL (≈ 6.01 µM). For the same molecule, the MIC [4] was 0.39 µg/mL (≈ 0.749 µM), the MIC [5] was 12.5 µg/mL (≈ 24 µM) and the MIC (Escherichia coli JR255) was 0.78 µg/mL (≈ 1.5 µM). For the same molecule, the MIC (Serratia marcescens) was 25 µg/mL (≈ 48 µM), the MIC (Salmonella typhi T-63) was 25 µg/mL (≈ 48 µM) and the MIC (Proteus rettgeri GN466) was 1.56 µg/mL (≈ 3 µM). It also gave an MIC [6] of 1.56 µg/mL (≈ 3 µM), an MIC (Providencia Pv 16) of 25 µg/mL (≈ 48 µM) and an MIC [7] of 100 µg/mL (≈ 192 µM). For the same molecule, the MIC [8] was 1.56 µg/mL (≈ 3 µM), the MIC (Escherichia coli NIHJ) was 0.78 µg/mL (≈ 1.5 µM) and the MIC [9] was less than 0.2 µg/mL. It also gave an MIC [10] of 0.78 µg/mL (≈ 1.5 µM), an MIC [11] of 6.25 µg/mL (≈ 12 µM) and an MIC (Sarcina lutea PCI 1001) of 0.78 µg/mL (≈ 1.5 µM). For the same molecule, the MIC [12] was 12.5 µg/mL (≈ 24 µM), the MIC (Escherichia coli K-12) was 0.78 µg/mL (≈ 1.5 µM) and the MIC [13] was less than 0.2 µg/mL. The MIC [14] was 12.5 µg/mL (≈ 24 µM), the MIC (Bacillus anthracis) was less than 0.2 µg/mL and the MIC [15] was 100 µg/mL (≈ 192 µM). The MIC [16] was less than 0.2 µg/mL, the MIC [17] was 6.25 µg/mL (≈ 12 µM) and the MIC (Escherichia coli K-12 R5) was 50 µg/mL (≈ 96 µM). The MIC [18] was 0.39 µg/mL (≈ 0.749 µM), the MIC [19] was 0.78 µg/mL (≈ 1.5 µM) and the MIC (Serratia 4) was 25 µg/mL (≈ 48 µM). The MIC [20] was 0.39 µg/mL (≈ 0.749 µM), the MIC [21] was greater than 100 µg/mL and the MIC [22] was 1.56 µg/mL (≈ 3 µM). It also gave an MIC (Proteus vulgaris OX19) of 0.39 µg/mL (≈ 0.749 µM), an MIC [23] of 3.13 µg/mL (≈ 6.01 µM) and an MIC [24] of 3.13 µg/mL (≈ 6.01 µM). The MIC [25] was less than 0.2 µg/mL, the MIC [26] was 6.25 µg/mL (≈ 12 µM) and the MIC [27] was 0.78 µg/mL (≈ 1.5 µM). It also gave an MIC [28] of 1.56 µg/mL (≈ 3 µM) and an MIC (Proteus rettgeri GN311) of 25 µg/mL (≈ 48 µM).
